The source of these data is US12281098B2, “Five-membered-fused six-membered compound, preparation method, pharmaceutical composition and use” (HANGZHOU POLYMED BIOPHARMACEUTICALS, INC., priority 2021, dated 2025).

Like-named read-outs stand apart in the source and are kept apart here.

The test system of assay [1] is THP-1 cells. Nature of the assay: LPS-stimulated cytokine (TNFα) release in THP-1. The note with it: LPS 100 ng/mL, 5 hours, TNF-α ELISA, read-out: Inhibition IC50 (nM) of cytokines (TNFα) against LPS-stimulated inflammatory responses in THP-1 cells. The assay is classed as cell-based, Human. As for the experimental part:
THP-1 cells were cultured in suspension in RPMI 1640 complete medium (containing 10% serum, 1% penicillin-streptomycin, and 55 μM β-mercaptoethanol). THP-1 cells were collected, centrifuged at 350×g at room temperature to discard the supernatant, and resuspended in RPMI 1640 complete medium to a concentration of 2×10^6 cells per mL. THP-1 cells were spread into a 96-well plate at a concentration of 2×10^5 cells per well, and different concentrations of the compound to be tested were added thereto. The plate was incubated in a 37° C. cell culture incubator with 5% CO2 for 60 minutes. 50 μL of LPS at a final concentration of 100 ng/mL was added to a 96-well plate, and incubated in a 37° C. cell culture incubator for 5 hours. The cell culture plate was then taken out from the incubator, and centrifuged at 350×g at low temperature for 5 minutes to collect 150 μL of the supernatant. Referring to the instructions in the Human TNF-α Duoset ELISA Kit, the level of TNF-α in the cell culture supernatant was detected.
Data on the inhibitory activity of cytokines (TNFα) against LPS-stimulated inflammatory responses in THP-1 cells are shown in Tables 3 and 4.

In assay [2] the target is T1, IRAK4 kinase (Homo sapiens, UniProt Q9NWZ3).
T1 construct: purchased Carna 09-145
T1 sequence (Q9NWZ3 1-460): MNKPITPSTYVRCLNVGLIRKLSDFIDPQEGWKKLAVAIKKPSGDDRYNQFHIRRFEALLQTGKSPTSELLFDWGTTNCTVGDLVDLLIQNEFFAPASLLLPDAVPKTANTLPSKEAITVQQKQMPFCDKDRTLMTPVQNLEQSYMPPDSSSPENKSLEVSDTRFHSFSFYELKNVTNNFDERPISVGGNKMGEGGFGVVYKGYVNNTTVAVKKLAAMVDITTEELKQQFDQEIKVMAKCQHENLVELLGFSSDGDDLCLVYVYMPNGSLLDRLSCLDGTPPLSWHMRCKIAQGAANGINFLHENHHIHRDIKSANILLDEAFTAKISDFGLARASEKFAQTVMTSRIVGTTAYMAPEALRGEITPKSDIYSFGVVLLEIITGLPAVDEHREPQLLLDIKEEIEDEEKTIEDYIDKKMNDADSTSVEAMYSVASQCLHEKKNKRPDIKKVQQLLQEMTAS
Description: Compound inhibition of IRAK4 kinase activity (fluorescence microfluidic mobility shift assay). The note with it: 10 μM ATP, 6 nM IRAK4 kinase. The assay is classed as biochemical. On the procedure:
Based on the experimental method of fluorescence microfluidic mobility shift assay, the IC50 value of the compound for competitive binding of ATP to IRAK4 kinase was determined. The initial detection concentration of the compound was 10 μM, which was 4-fold serially diluted to 0.38 nM and assayed in duplicate. In this case, commercially available staurosporine was the standard control for the assay.
1) IRAK4 kinase was dissolved in kinase buffer (50 mM HEPES pH 7.5, 10 mM MgCl2, 2 mM DDT, and 0.01% Brij-35) at a final concentration of 6 nM.
2) The substrate peptide FAM-P8 and ATP were dissolved in the above kinase buffer, and the final concentrations of the substrate peptide FAM-P8 and ATP for IRAK4 were 3 μM and 10 μM, respectively.
3) Compound dilution: The compound was first diluted to 50 μM, and then 4-fold serially diluted with DMSO. In this case, the solution without compound and kinase served as the blank control, corresponding to the “minimum value” shown below; the solution without compound but containing kinase, adenosine 5′-triphosphate disodium salt hydrate, DMSO, and the buffer served as the positive control, corresponding to the “maximum value” shown below.
4) Kinase reaction and termination: 10 μL of the kinase buffer was added to a 384-well plate containing 5 μL of the compound to be tested, and the mixture was incubated at room temperature for 10 minutes; another 10 μL of buffer containing the substrate peptide and adenosine 5′-triphosphate disodium salt hydrate was added to the 384-well plate, and after incubation at 28° C. for 1 hour, 25 μL of termination solution (100 mM HEPES pH 7.5, 50 mM EDTA, 0.2% Coating Reagent #3, and 0.015% Brij-35) was added to each well to terminate the reaction.
5) Data reading: CaliperEZ Reader II instrument was used to read the conversion rate data. Setting conditions: downstream voltage as −500 V, upstream voltage as −2250 V, base pressure as −0.5 PSI, and screening pressure as −1.2 PSI.
6) Data calculation: the conversion rate data was copied from CaliperEZ Reader II, and the conversion rate was converted into inhibition rate data. The calculation formula is as follows: Inhibition percentage (%)=(maximum value−conversion rate)/(maximum value−minimum value)*100%
IC50 values were fitted with XLFit excel add-in version 5.4.0.8.

Assay [3] deals with T2, IRAK4 protein in THP-1 cells (Homo sapiens, UniProt Q9NWZ3).
T2 construct: endogenous in cells; host or cells: THP-1
T2 sequence (Q9NWZ3 1-460): T1 sequence (Q9NWZ3 1-460)
Description: IRAK4 protein degradation in THP-1 induced by PROTAC (Western Blot). Type of assay: cell-based. The note with it: GAPDH internal reference. As for the experimental part: 3.1. Based on the experimental method of immunoblot, i.e., Western Blot, THP-1 cell samples processed by gel electrophoresis were stained with specific antibodies, and the degradation activity of the compounds on the IRAK4 protein in THP-1 cells was determined by analyzing the position of the staining and the depth of the staining. The detection concentrations of the compounds were 0 μM, 0.3 μM, 1 μM, and 3 μM, and the compounds were used to treat the cells for 8 hours, 16 hours, 24 hours, and 48 hours. In this case, glyceraldehyde-3-phosphate dehydrogenase (GAPDH) was the internal reference protein for the assay.
THP-1 cells were spread into a 6-well plate at a density of 1.5×10^6 cells per mL, and incubated in a 37° C. cell culture incubator with 5% CO2 for 2 hours. The compound was diluted with DMSO to 0.6 mM, 0.2 mM, and 0.06 mM, respectively. 10 μL of compound solution was added to the corresponding wells, and the plate was incubated in the incubator for 16 hours, 24 hours, and 48 hours, respectively. The drug-treated THP-1 cells were collected from the wells, added with 120 μL of RIPA lysis buffer containing protease inhibitor, phosphatase inhibitor cocktail 2, and phosphatase inhibitor cocktail 3, and lysed on wet ice for 30 minutes. The cell lysate was then centrifuged at low temperature and high speed for 5 minutes, and the supernatant was collected. Referring to the instructions in the Pierce™ BCA Protein Assay Kit, the cell samples were tested for protein concentration.
The samples were adjusted to the same concentration using lysis buffer and NuPAGE® LDS sample buffer containing 1 M DTT. The samples were heated at 95° C. for 5 minutes and centrifuged at low temperature and high speed. 20 μL of prepared protein sample and 4 μL of PageRuler Prestained Protein Ladder were added to the gel wells. The mixture was electrophoresed at a voltage of 80 V for 0.5 hours, and then electrophoresed for another 1.5 hours after the voltage was adjusted to 120 V. The gel was removed and proteins in the gel were transferred to IBlot™ 2 Transfer Stack at a voltage of 20V. After successful membrane transfer, the bands were cut out at 65 kDa to 40 kDa and 40 kDa to 30 kDa, respectively. The membrane was blocked with 5% non-fat milk at room temperature for 1 hour. The membrane was washed three times with 1×TBST, and incubated with IRAK4 antibody working solution at 4° C. overnight. The IRAK4 antibody working solution was discarded, and the membrane was washed three times with 1×TBST. After the corresponding membrane was incubated with Goat Anti-Rabbit IgG H&L (HRP) working solution and Goat Anti-Mouse IgG H&L (HRP) working solution at room temperature for 1 hour, the antibody working solutions were discarded, and the membrane was washed three times with 1×TBST. Referring to the instructions in the SuperSignal™ West Femto Maximum Sensitivity Substrate Kit, the reagents in the kit were mixed in equal volume proportions to prepare a luminescent mixture, and the membrane was incubated for 1 minute and removed for exposure.
WB assay: The results 24 hours after administration at 1 μM were divided into estimated <25%, <50%, <75%, and <100%.
Background: A western blot detects proteins with antibodies after separation by electrophoresis.

As usually defined, the IC50 is the concentration that inhibits the measured activity by half. On to `CC(C)(O)c1cc2nn(CCN3CCN(CC(=O)N4CCC5(CC4)CN(c4cccc6c4C(=O)N(C4CCC(=O)NC4=O)C6=O)C5)C3=O)cc2cc1NC(=O)c1cccc(C(F)(F)F)n1` (stereo not shown) [III-5], for which the IC50 in assay [1] (Homo sapiens, THP-1, Table 4) fell in the range of 1000 to 10000 nM; in assay [2] (Table 1) it was 100 to 1000 nM; in assay [2] (Table 2), 100 to 1000 nM. For the same molecule, the “Western Blot results 24 hours after administration at a drug concentration of 1 μM” value (“Western Blot results 24 hours” for short) in assay [3] (Table 6, estimated bins) was under 25%.

`Cc1ncsc1-c1ccc([C@H](C)NC(=O)[C@@H]2C[C@@H](O)CN2C(=O)[C@@H](NC(=O)C2CC3(CCN(C(=O)CN4CCN(CCn5cc6cc(NC(=O)c7cccc(C(F)(F)F)n7)c(C(C)(C)O)cc6n5)C4=O)CC3)C2)C(C)(C)C)cc1` [III-16]: the IC50 in assay [1] (Homo sapiens, THP-1, Table 3) was 1000 to 10000 nM; in assay [1] (Table 4) it was 1000 to 10000 nM; in assay [2] (Table 1), 100 to 1000 nM; in assay [2] (Table 2), 100 to 1000 nM. Further, in assay [3] (Table 5, estimated bins), the “Western Blot results 24 hours” value is given as under 50%.

For `Cc1ncsc1-c1ccc([C@H](C)NC(=O)[C@@H]2C[C@@H](O)CN2C(=O)[C@@H](NC(=O)C2CCC3(CC2)CCN(C(=O)CN2CCN(CCn4cc5cc(NC(=O)c6cccc(C(F)(F)F)n6)c(C(C)(C)O)cc5n4)C2=O)CC3)C(C)(C)C)cc1` [III-17], the IC50 in assay [1] (Homo sapiens, THP-1, Table 3) was 1000 to 10000 nM; in assay [1] (Table 4), 1000 to 10000 nM; in assay [2] (Table 1), 100 to 1000 nM; in assay [2] (Table 2), 100 to 1000 nM. The “Western Blot results 24 hours” value in assay [3] (Table 5, estimated bins) was under 25%; in assay [3] (Table 6, estimated bins) it was under 25%.

`CC(C)(O)c1cc2nn(CCN3CCN(CC(=O)N4CC5(C4)CN(c4cccc6c4C(=O)N(C4CCC(=O)NC4=O)C6=O)C5)CC3)cc2cc1NC(=O)c1cccc(C(F)(F)F)n1` (stereo not shown) [III-63]: the IC50 in assay [2] (Table 2) was under 100 nM. In addition, the “Western Blot results 24 hours” value in assay [3] (Table 6, estimated bins) is listed as under 25%.

`COc1cc2nn(CCN3CCN(c4ccc(OCC#Cc5cccc6c5C(=O)N(C5CCC(=O)NC5=O)C6=O)cc4)CC3)cc2cc1NC(=O)c1cccc(C(F)(F)F)n1` (stereo not shown) [III-69]: the IC50 in assay [2] (Table 2) lay in the range of 100 to 1000 nM. Besides, the “Western Blot results 24 hours” value in assay [3] (Table 6, estimated bins) is on record as under 25%.
